Experimental data from patent publication US20260265538A1, “Aqueous Industrial Product Stabilized Against Microbial Contamination” (Thor GmbH, priority 2023, published 2026).

Test system: Bacteria mixture 2 (alkaliphilic bacteria of the Nesterenkonia & Alkalibacterium genus)
Assay: Repetitive stress test of paints with bacteria mixture 2, semiquantitative evaluation (examples 4 and 5)
Format: cell-based
Design: key to Bacterial growth after inoculation: 0: No growth; Minimal growth, 1 to 10 colonies visible over the entire streak; 2: Light growth, maximum 100 colonies; Moderate growth, maximum 300 to 400 colonies; Uniform growth, >400 colonies, single colonies still clearly recognizable; 5: Heavy growth, too many colonies to count, but no growth over the entire streak; 6: Full growth, barely any single colonies still apparent, growth over the entire streak
From the text: Paints 1 to 3 were mixed and homogenized with various concentrations of the guanidinium salts to be tested.
The batches obtained of the paint thus prepared were inoculated repeatedly with a mixture of different wild-type bacterial strains that are of practical relevance with regard to contamination. These bacteria had previously been isolated from commercial emulsion paints containing conventional preservatives (bacteria mixture 1, Pseudomonas genus), which are microbially contaminated in practice, and commercial so-called preservative-free alkaline emulsion paints (bacteria mixture 2, alkaliphilic bacteria of the Nesterenkonia & Alkalibacterium genus), which are microbially contaminated in practice.
• Nesterenkonia sp. DSM 108520 • Nesterenkonia sp. DSM 108521 • Alkalibacterium pelagium DSM 108522 • Nesterenkonia massiliensis DSM 110679 • Nesterenkonia sp. DSM 108519
The inoculum was added to the respective sample in each inoculation at 2% (v/w) as a fresh cell suspension in a physiological saline solution (0.9% NaCl). The cell count of the added inoculum in example 1 was 10^5/ml, in examples 2 to 5 10^9/ml, and in example 6 10^6/ml, each in equal portions consisting of the individual bacterial strains. The cell suspension was produced by growing the individual bacteria at 30° C. for 24 h in liquid culture on a shaker. The medium used to grow the bacteria from bacteria mixture 1 was Müller-Hinton liquid medium. Bacteria from bacteria mixture 2 were grown in Müller-Hinton liquid medium that had been adjusted to pH 9.5-9.7 with an alkaline buffer solution beforehand. After growing, the individual liquid cultures were centrifuged, and the cells were resuspended in physiological saline solution. In order to adjust the mixture to the desired cell count, the individual bacteria suspensions, if necessary, were diluted accordingly before being combined with saline solution. The cell count of the inoculum was determined in each case by chamber counting.
In examples 2 to 6, what is called a repetitive stress test with bacteria was conducted by inoculating the samples at particular time intervals repeatedly with a bacteria suspension having a cell count of 10^9/ml (2% v/w) and monitoring the evolution of the bacteria by a semiquantitative evaluation method. After each inoculation, the samples were incubated at 30° C. for 6 days (bacteria mixture 1 and 3) or 7 and 14 days (bacteria mixture 2), and after these periods bacterial infestation was evaluated semiquantitatively in each case. For this purpose, an aliquot was taken from each sample after homogenization using a sterile plastic inoculation loop (10 μl) and streaked evenly on agar plates (bacteria mixture 1 and 3 on tryptic soy agar, bacteria mixture 2 on DSMZ 31 alkaline nutrient agar). The streaked agar plates were then incubated at 30° C. for 48 h (bacteria mixture 1 and 3) or 5 to 7 days (bacteria mixture 2). After incubation, the bacterial colonies grown on the agar plates were visually evaluated and quantified according to the following scheme:
A total of 3 inoculation cycles was performed in each repetitive stress test.
Inoculation 2% (w/v) with Bacteria Mixture 2, 10^9 CFU/ml

## N=C(N)N.N=C(N)N.O=C(O)O [guanidine carbonate]
Table 4, Paint 2, +0.1% guanidine carbonate (656 ppm guanidine), pH 8.9, 2. inoculation, 14 d
  Bacterial growth after inoculation: 4 (Uniform growth, >400 colonies, single colonies still clearly recognizable)
Table 4, Paint 2, +0.1% guanidine carbonate (656 ppm guanidine), pH 8.9, 3. inoculation, 7 d
  Bacterial growth after inoculation: 6/6
Table 4, Paint 2, +0.1% guanidine carbonate (656 ppm guanidine), pH 8.9, 3. inoculation, 14 d
  Bacterial growth after inoculation: 6/6
Table 4, Paint 2, +0.15% guanidine carbonate (984 ppm guanidine), pH 9.0, 1. inoculation, 7 d
  Bacterial growth after inoculation: 0/0
Table 4, Paint 2, +0.15% guanidine carbonate (984 ppm guanidine), pH 9.0, 1. inoculation, 14 d
  Bacterial growth after inoculation: 0/0
Table 4, Paint 2, +0.15% guanidine carbonate (984 ppm guanidine), pH 9.0, 2. inoculation, 7 d
  Bacterial growth after inoculation: 2 (Light growth, maximum 100 colonies)
Table 4, Paint 2, +0.15% guanidine carbonate (984 ppm guanidine), pH 9.0, 2. inoculation, 14 d
  Bacterial growth after inoculation: 1 (Minimal growth, 1 to 10 colonies visible over the entire streak)
Table 4, Paint 2, +0.15% guanidine carbonate (984 ppm guanidine), pH 9.0, 3. inoculation, 7 d
  Bacterial growth after inoculation: 6/6
Table 4, Paint 2, +0.15% guanidine carbonate (984 ppm guanidine), pH 9.0, 3. inoculation, 14 d
  Bacterial growth after inoculation: 6/6
Table 4, Paint 2, +0.2% guanidine carbonate (1312 ppm guanidine), pH 9.1, 1. inoculation, 7 d
  Bacterial growth after inoculation: 0/0
Table 4, Paint 2, +0.2% guanidine carbonate (1312 ppm guanidine), pH 9.1, 1. inoculation, 14 d
  Bacterial growth after inoculation: 0/0
Table 4, Paint 2, +0.2% guanidine carbonate (1312 ppm guanidine), pH 9.1, 2. inoculation, 7 d
  Bacterial growth after inoculation: 0/0
Table 4, Paint 2, +0.2% guanidine carbonate (1312 ppm guanidine), pH 9.1, 2. inoculation, 14 d
  Bacterial growth after inoculation: 0/0
Table 4, Paint 2, +0.2% guanidine carbonate (1312 ppm guanidine), pH 9.1, 3. inoculation, 7 d
  Bacterial growth after inoculation: 6/6
Table 4, Paint 2, +0.2% guanidine carbonate (1312 ppm guanidine), pH 9.1, 3. inoculation, 14 d
  Bacterial growth after inoculation: 6/6
Table 4, Paint 2, +0.25% guanidine carbonate (1640 ppm guanidine), pH 9.1, 1. inoculation, 7 d
  Bacterial growth after inoculation: 0/0
Table 4, Paint 2, +0.25% guanidine carbonate (1640 ppm guanidine), pH 9.1, 1. inoculation, 14 d
  Bacterial growth after inoculation: 0/0
Table 4, Paint 2, +0.25% guanidine carbonate (1640 ppm guanidine), pH 9.1, 2. inoculation, 7 d
  Bacterial growth after inoculation: 0/0
Table 4, Paint 2, +0.25% guanidine carbonate (1640 ppm guanidine), pH 9.1, 2. inoculation, 14 d
  Bacterial growth after inoculation: 0/0
Table 4, Paint 2, +0.25% guanidine carbonate (1640 ppm guanidine), pH 9.1, 3. inoculation, 7 d
  Bacterial growth after inoculation: 0/0
Table 4, Paint 2, +0.25% guanidine carbonate (1640 ppm guanidine), pH 9.1, 3. inoculation, 14 d
  Bacterial growth after inoculation: 0/0
Table 4, Paint 2, +0.3% guanidine carbonate (1968 ppm guanidine), pH 9.2, 1. inoculation, 7 d
  Bacterial growth after inoculation: 0/0
Table 4, Paint 2, +0.3% guanidine carbonate (1968 ppm guanidine), pH 9.2, 1. inoculation, 14 d
  Bacterial growth after inoculation: 0/0
Table 4, Paint 2, +0.3% guanidine carbonate (1968 ppm guanidine), pH 9.2, 2. inoculation, 7 d
  Bacterial growth after inoculation: 0/0
Table 4, Paint 2, +0.3% guanidine carbonate (1968 ppm guanidine), pH 9.2, 2. inoculation, 14 d
  Bacterial growth after inoculation: 0/0
Table 4, Paint 2, +0.3% guanidine carbonate (1968 ppm guanidine), pH 9.2, 3. inoculation, 7 d
  Bacterial growth after inoculation: 0/0
Table 4, Paint 2, +0.3% guanidine carbonate (1968 ppm guanidine), pH 9.2, 3. inoculation, 14 d
  Bacterial growth after inoculation: 0/0
Table 4, Paint 2, +0.4% guanidine carbonate (2624 ppm guanidine), pH 9.3, 1. inoculation, 7 d
  Bacterial growth after inoculation: 0/0
Table 4, Paint 2, +0.4% guanidine carbonate (2624 ppm guanidine), pH 9.3, 1. inoculation, 14 d
  Bacterial growth after inoculation: 0/0
Table 4, Paint 2, +0.4% guanidine carbonate (2624 ppm guanidine), pH 9.3, 2. inoculation, 7 d
  Bacterial growth after inoculation: 0/0
Table 4, Paint 2, +0.4% guanidine carbonate (2624 ppm guanidine), pH 9.3, 2. inoculation, 14 d
  Bacterial growth after inoculation: 0/0
Table 4, Paint 2, +0.4% guanidine carbonate (2624 ppm guanidine), pH 9.3, 3. inoculation, 7 d
  Bacterial growth after inoculation: 0/0
Table 4, Paint 2, +0.4% guanidine carbonate (2624 ppm guanidine), pH 9.3, 3. inoculation, 14 d
  Bacterial growth after inoculation: 0/0
Table 4, Paint 2, +0.5% guanidine carbonate (3280 ppm guanidine), pH 9.4, 1. inoculation, 7 d
  Bacterial growth after inoculation: 0/0
Table 4, Paint 2, +0.5% guanidine carbonate (3280 ppm guanidine), pH 9.4, 1. inoculation, 14 d
  Bacterial growth after inoculation: 0/0
Table 4, Paint 2, +0.5% guanidine carbonate (3280 ppm guanidine), pH 9.4, 2. inoculation, 7 d
  Bacterial growth after inoculation: 0/0
Table 4, Paint 2, +0.5% guanidine carbonate (3280 ppm guanidine), pH 9.4, 2. inoculation, 14 d
  Bacterial growth after inoculation: 0/0
Table 4, Paint 2, +0.5% guanidine carbonate (3280 ppm guanidine), pH 9.4, 3. inoculation, 7 d
  Bacterial growth after inoculation: 0/0
Table 4, Paint 2, +0.5% guanidine carbonate (3280 ppm guanidine), pH 9.4, 3. inoculation, 14 d
  Bacterial growth after inoculation: 0/0
Table 4, Paint 2, +1.0% guanidine carbonate (6560 ppm guanidine), pH 9.8, 1. inoculation, 7 d
  Bacterial growth after inoculation: 0/0
Table 4, Paint 2, +1.0% guanidine carbonate (6560 ppm guanidine), pH 9.8, 1. inoculation, 14 d
  Bacterial growth after inoculation: 0/0
Table 4, Paint 2, +1.0% guanidine carbonate (6560 ppm guanidine), pH 9.8, 2. inoculation, 7 d
  Bacterial growth after inoculation: 0/0
Table 4, Paint 2, +1.0% guanidine carbonate (6560 ppm guanidine), pH 9.8, 2. inoculation, 14 d
  Bacterial growth after inoculation: 0/0
Table 4, Paint 2, +1.0% guanidine carbonate (6560 ppm guanidine), pH 9.8, 3. inoculation, 7 d
  Bacterial growth after inoculation: 0/0
Table 4, Paint 2, +1.0% guanidine carbonate (6560 ppm guanidine), pH 9.8, 3. inoculation, 14 d
  Bacterial growth after inoculation: 0/0
Table 5, Paint 3, +0.15% guanidine carbonate (984 ppm guanidine), pH 11.2, 1. inoculation, 7 d
  Bacterial growth after inoculation: 3 (Moderate growth, maximum 300 to 400 colonies)
Table 5, Paint 3, +0.15% guanidine carbonate (984 ppm guanidine), pH 11.2, 1. inoculation, 14 d
  Bacterial growth after inoculation: 0
Table 5, Paint 3, +0.15% guanidine carbonate (984 ppm guanidine), pH 11.2, 2. inoculation, 7 d
  Bacterial growth after inoculation: 3 (Moderate growth, maximum 300 to 400 colonies)
Table 5, Paint 3, +0.15% guanidine carbonate (984 ppm guanidine), pH 11.2, 2. inoculation, 14 d
  Bacterial growth after inoculation: 0
Table 4, addition of 0.1% by weight to paint 1 having a pH of 9.1 or greater
  Stabilization of the paint against microbial infestation: distinct stabilization
Table 4, addition of 0.1% by weight to paint 2 having a pH of 8.9 or greater
  Stabilization of the paint against microbial infestation: distinct stabilization
Table 5, paint having a pH of pH 11.2, addition of 0.1% by weight
  Stabilization of the paint against microbial infestation: distinct stabilization
